The source made the active and inactive calls. No rule for the calls is given here.
Target: Toxin B (TcdB) glycohydrolase, Clostridioides difficile 630
Assay: TcdB glycohydrolase inhibitors, dose response, biochemical, cherry-pick, plate reader (AID 720512)
Conditions: recombinant TcdB glycohydrolase activity

SMILES | activity change, negative = inhibition (at 19.5 µM (top of the series)) | other results
COc1ccccc1/C=C/c1onc(C)c1S(=O)(=O)N1CCC(C(=O)NC2CCCCCC2)CC1 | inactive | –
Cc1cc(C(=O)Nc2ncc(C)s2)c2ccccc2n1 | inactive | –
CCc1ccccc1NC(=O)CN1CCN(CC(=O)NCc2ccc(Cl)cc2)CC1 | inactive | –
Nc1nnn(CC(=O)N/N=C/c2ccc(O)cc2)n1 | inactive | –
O=c1onc(-c2ccccc2)n1Cc1ccc([N+](=O)[O-])cc1 | inactive | –
COc1ccc(Cl)cc1NC(=O)CSc1nnc(-c2ccco2)o1 | inactive | –
Cc1ccc(C(=O)NC(=S)NNC(=O)CC#N)cc1 | inactive | –
COc1cccc(C(=O)COC(=O)c2ccc(NC(=O)c3ccccc3)cc2)c1 | inactive | –
COc1ccccc1Oc1cn[nH]c1-c1ccc(O)cc1O | inactive | –
C[C@H](CO)N1C[C@H](C)[C@@H](CN(C)CC2CCCCC2)Oc2ccc(NC(=O)CCN3CCOCC3)cc2C1=O | inactive | –
O=C(CCC(=O)N1CCSc2ccccc21)Nc1cccc(F)c1 | inactive | –
O=C(c1ccc2c(c1)N(Cc1ccccc1)C(=O)c1ccccc1S2)N1CCCC1 | inactive | –
c1ccc2[nH]c(-c3ccc4c(c3)OCO4)nc2c1 | inactive | –
CNc1cncc(-c2ccc(O)cc2)n1 | – | AC50: > 39 µM (inactive)
S=c1nc(-c2ccc(Cl)cc2)[nH][nH]1 | inactive | –
O=C(O)C1C(=O)NCC1c1ccccc1 (stereo not given) | inactive | –
COc1cccc(-n2c(SCC(=O)N3CCOCC3)nnc2-c2c[nH]c3ccccc23)c1 | inactive | –
COc1cc(/C(C)=N/NC(=O)CSc2nnc(C)s2)ccc1O | inactive | –
COC(=O)C[C@H]1CC[C@@H]2[C@@H](COc3ccc(NC(=O)c4ccc(OC)cc4)cc3C(=O)N2C)O1 | inactive | –
Fc1ccccc1Nc1n[nH]c(=S)s1 | inactive | –
COC(=O)C(Cc1ccccc1)NC(=O)CSc1nc(C)cc(=O)[nH]1 (stereo not given) | inactive | –
CN1c2ccc(-c3ccccc3)cc2[C@@H]2[C@@H](CCN2C(=O)CN2CCOCC2)[C@@H]1CO | – | AC50: > 39 µM (inactive)
COc1ccc(/C=N/n2c(-c3cc(C)[nH]n3)n[nH]c2=S)cc1OC | inactive | –

SMILES | activity change, negative = inhibition (at 19.5 µM (top of the series)) | other results
CCn1c(=S)[nH]c2c(=O)n(C)c(=O)n(C)c21 | – | AC50: 10.8 µM
CCN1CCN(c2oc(-c3ccccc3C)nc2S(=O)(=O)c2ccccc2)CC1 | inactive | –
O=C(C[C@H]1C[C@@H]2c3cc(NC(=O)c4ccc5c(c4)OCO5)ccc3O[C@@H]2[C@@H](CO)O1)NCc1cccc(F)c1 | inactive | –
O=C(c1ccccc1)c1coc2ccc(O)c(Cl)c12 | – | AC50: > 39 µM (inactive)
O=S(=O)(Oc1ccccc1-c1ccccc1)c1ccccc1 | inactive | –
Cc1cc(/C=C(\C#N)C(=O)N2CCCCC2)cc(C)c1O | inactive | –
O=C(C[C@H]1CC[C@H]2[C@@H](COC[C@@H](O)CN2Cc2ccccc2)O1)NCCc1ccccc1 | inactive | –
O=C(NNC(=O)c1cccc2ccccc12)c1cccc(F)c1 | inactive | –
Cc1ccc(Cc2c(-c3ccc(C)cc3)nc3ccc(Cl)cn23)cc1 | inactive | –
C=CCn1c(SCC(=O)N2CC(=O)Nc3ccccc32)nc2scc(-c3ccccc3)c2c1=O | inactive | –
O=C(O)c1c(C(=O)O)c(-c2ccc(Br)cc2)n2c1CSC2 | inactive | –
COc1ccccc1-n1c(SCC(=O)O)nc2c(sc(=S)n2-c2ccc(Cl)c(C)c2)c1=O | inactive | –
CNC(=O)C1Cc2c(-c3ccccc3Oc3ccccc3)ccnc2O1 (stereo not given) | inactive | –
COc1ccc(C2=NS(=O)(=O)N(C)C(C(=O)N(C)Cc3ccccc3)=C2)cc1 | inactive | –
O=c1[nH]c(/C=C\c2ccc(O)cc2)nc(O)c1[N+](=O)[O-] | inactive | –
Cc1cc(C(=O)NNc2ccc(C)c(C)c2)no1 | – | AC50: 2.24 µM
COCC(=O)N1CC[C@@H]2[C@H]1c1cc(-c3ccc(F)cc3)ccc1N(C)[C@H]2CO | inactive | –
S=C(NCCN1CCOCC1)Nc1ccc(Nc2ccccc2)cc1 | – | AC50: > 39 µM (inactive)
CNC(=O)C[C@@H]1CC[C@H]2[C@H](COc3ccc(NS(=O)(=O)c4ccccc4C)cc3C(=O)N2C)O1 | inactive | –
Oc1ccc(-c2nc3cnccn3c2Nc2ccc3c(c2)OCCO3)cc1 | inactive | –
CC(=O)C(Sc1nccc(-c2cccs2)n1)C(C)=O | inactive | –
CCC(=O)Nc1ccc2c(c1)OC[C@H](C)N(C(=O)NC(C)C)C[C@@H](C)[C@@H](OC)CN(C)C2=O | inactive | –
CC(OC(=O)[C@@H](NC(=O)OCc1ccccc1)C(C)C)C(=O)Nc1ccc(N2CCOCC2)cc1 (stereo not given in full) | inactive | –

SMILES | activity change, negative = inhibition (at 19.5 µM (top of the series)) | other results
O=C1NN=C2CCCCCCC12 (stereo not given) | inactive | –
O=[N+]([O-])c1ccc(/C=C/c2ccc3ccccc3n2)cc1 | inactive | –
O=C(c1ccc([N+](=O)[O-])cc1)N1CCN(c2cccc3[nH]ccc23)CC1 | inactive | –
CCNC(=O)C[C@@H]1CC[C@H]2[C@@H](COc3ccc(NC(C)=O)cc3C(=O)N2C)O1 | – | activity change, negative = inhibition (at 21 µM (top of the series)): inactive
Cc1ccc(C(=O)NC(=O)OCCn2c(C)cnc2[N+](=O)[O-])cc1 | inactive | –
O=C(NC(=S)Nc1ccc(N2CCOCC2)cc1)c1ccccc1 | – | AC50: > 39 µM (inactive)
O=C(COc1ccc(/C=N/NC(=O)c2ccc(O)cc2)cc1)Nc1cccc([N+](=O)[O-])c1 | inactive | –
C[C@@H]1CN([C@H](C)CO)C(=O)c2cccc(N(C)C)c2O[C@@H]1CN(C)C(=O)Nc1ccc(C(F)(F)F)cc1 | inactive | –
CC1(C)OC2C(O1)[C@@H](CO)O[C@H]2n1cnc2c(N)ncnc21 (stereo not given in full) | inactive | –
CC(C)Cc1[nH]c(=O)c(C#N)c2c1CCCC2 | inactive | –
C[C@H](NC(=O)c1cc2c(cn1)[nH]c1ccccc12)C(=O)O | inactive | –
CCCNC(=O)C[C@H]1CC[C@@H]2[C@@H](COc3ccc(NC(=O)c4ccc5c(c4)OCO5)cc3C(=O)N2C)O1 | – | AC50: > 39 µM (inactive)
CN(C)CCNc1cccc2sc3ccc(O)cc3c(=O)c12 | – | AC50: 12.4 µM
Cc1cccc(/C=C/c2onc(C)c2S(=O)(=O)N2CCC(C(=O)NC(C)C)CC2)c1 | inactive | –
CCC(C)NC(=O)CSc1nc2cc(S(=O)(=O)N3CCOCC3)ccc2n1CC (stereo not given) | inactive | –
COc1cccc(C(=O)OCC(=O)Nc2cc(C)on2)c1OC | inactive | –
Nc1nc(Nc2ccccc2)n[nH]1 | inactive | –
Cn1c(SCC(=O)c2cc3ccccc3o2)nnc1-c1ccccc1 | inactive | –
O=C(NCc1ccncc1)[C@@H]1CCCN1C(=O)[C@@H]1CCCN1 | inactive | –
Cc1c(Cl)cccc1NC(=O)C1Cc2ccccc2CN1C(=O)c1ccccc1 (stereo not given) | inactive | –
O=C(OCC(=O)N1CCCCC1)c1ccccc1SCC(=O)N1CCCCC1 | inactive | –
Cc1nn(C2CC(O)C(O)C(CO)O2)c(=O)[nH]c1=O (stereo not given) | inactive | –
COc1cc(/C=N/NC(=O)Cn2nnc3ccccc32)ccc1O | inactive | –

SMILES | activity change, negative = inhibition (at 19.5 µM (top of the series)) | other results
COc1ccc(CNCCc2ccc3c(c2)OCO3)cc1Br | inactive | –
COc1cc([N+](=O)[O-])ccc1NC(=O)Oc1ccc(NC(C)=O)cc1 | inactive | –
Cc1ccccc1C(C(=O)NC1CCCCC1)N(C(=O)c1ccccn1)c1cccnc1 (stereo not given) | inactive | –
Cc1ccc(-c2cc(C(=O)OC3CCOC3=O)c3ccccc3n2)c(C)c1 (stereo not given) | inactive | –
COc1cc(/C=C/C(=O)OCC(=O)c2ccc[nH]2)ccc1O | inactive | –
Nc1ccc2nc(-c3cccs3)[nH]c2c1 | – | AC50: > 39 µM (inactive)
O=C(N/N=C/c1ccccn1)c1ccc([N+](=O)[O-])cc1Cl | inactive | –
NS(=O)(=O)c1cccc(NC(=O)c2ccc(NS(=O)(=O)c3cccc([N+](=O)[O-])c3)cc2)c1 | inactive | –
O=[N+]([O-])c1c(Nc2ccccc2O)ccc2nonc12 | inactive | –
Cc1cc(C)nc(NC(N)=NCCc2ccccc2)n1 | inactive | –
Cc1ccc(C)c2sc(NC(=O)c3ccc(N4C(=O)CCC4=O)cc3)nc12 | inactive | –
Cc1cc(N/N=C/c2ccncc2)nc2ccccc12 | inactive | –
C=CCN=c1scc(C)n1/N=C/c1ccc(O)c(O)c1 | inactive | –
Cc1ccc(S(=O)(=O)N2CCC(C(=O)OCC(=O)NCCc3ccccc3)CC2)cc1C | inactive | –
COCCNc1oc(/C=C/c2ccccc2)nc1C#N | inactive | –
CN1C(=O)c2cc(NC(=O)c3cccc(F)c3)ccc2OC[C@@H]2O[C@@H](CC(=O)NCC3CCCCC3)CC[C@H]21 | inactive | –
COc1ccc(C(O)(C(C)C)C(CN2CCOCC2)c2ccccc2)cc1 (stereo not given) | inactive | –
CC(=O)Nc1ccc(NC(=O)Cc2ccc(S(=O)(=O)N3CCCCC3)cc2)cc1 | inactive | –
C[C@H](CO)N1C[C@H](C)[C@@H](CN(C)C(=O)Nc2ccc(C(F)(F)F)cc2)Oc2c(NS(=O)(=O)c3cn(C)cn3)cccc2C1=O | inactive | –
Cc1ccc(/C=C/c2onc(C)c2S(=O)(=O)N2CCC(C(=O)NC(C)(C)C)CC2)cc1 | inactive | –
COC(=O)Cc1ccc(NC(=S)NCc2ccco2)cc1 | inactive | –

— PubChem BioAssay AID720512 (Broad Institute, 2013)
